Reference: patent publication US20100119499A1, “STILBENE-BASED COMPOSITIONS AND METHODS OF USE THEREFOR” (priority 2009, published 2010)
Read-outs that look alike come from different tables or passages of the source.

Assays:
healthy, adult humans = test: oral pterostilbene in humans, whole blood glucose by finger prick glucometer; type: in vivo
Description: In work described herein using pterostilbene orally in humans (supplied by Chromadex, 10005 Muirlands Boulevard, Suite G, Irvine, Calif. 92618, USA) dosing of oral pterostilbene was initially started at a lower dose than the calculated HED, with the intent of titrating the dose up as needed.
The test subject was immediately treated with oral glucose and other carbohydrates and recovered without other incident. […] At oral dosing above 0.165 mg/kg (actual dose tested 20 mg) pterostilbene is capable of inducing profound hypoglycemia (e.g., whole blood glucose at or below 55 mg/dL) and the side effects associated with this condition. Accordingly, at the doses predicted by the FDA/CDER formula, oral administration of pterostilbene to humans would likely be fatal.

normal human fibroblasts = details: cited from earlier work
[1] = total reactive antioxidant potential against ABAP-derived peroxyl radicals; details: converted value in brackets
humans = test: oral pterostilbene combined with nutrients, athletic performance in humans; type: in vivo, human
Description: Additional work described herein addressed the effects of combining oral pterostilbene with various nutrients on athletic performance. Specifically, oral pterostilbene was administered with creatine supplements, and the effect of this combination was compared with the effect of creatine supplements alone.
The addition of exogenous dietary carbohydrates such as glucose, isolmaltulose, leucrose, trehalose, trehalulose, amylose, ribose, and maltodextrin to the creatine-containing supplement allowed for even higher pterostilbene dosing (up to 25 mg of oral pterostilbene) and produced an even more pronounced, immediate increase in athletic performance without the onset of hypoglycemia.
While not wishing to be bound by any particular theory, the inventors believe that pterostilbene increases or otherwise effects a change in the rate and quantity of the transfer of these nutrients from the blood plasma into the tissues and organs. Such dietary nutrients include, but are not limited to, creatine and its salts esters, amides and chelates, creatinol-O-phosphate, branched chain amino acids (leucine, isoleucine, valine) and their salts, esters, amides and chelates, branched chain keto-acids including, but not limited to ketoisocaproate and its salts, other ergogenic, performance-enhancing amino acids including, but not limited to, taurine, beta-alanine, arginine, ornithine, aspartic acid, glutamine, glutaric acid, agmatine, citrulline, norvaline, glycine, cysteine and their salts, ester, amides and chelates, performance enhancing dipeptides including, but not limited to, carnitine, anserine and carnosine and their salts and esters and proteins that are known to contain dipeptides such as whey or soy or egg protein isolates or concentrates or any combination of these non-carbohydrate based dietary nutrients.
Further, the addition and oral consumption of one or more exogenous dietary carbohydrates, including but not limited to rice oligodextrin, amylose, amylopectin, glucose, maltodextrin, maltose, isolmaltulose, leucrose, trehalulose, ribose, trehalose, and/or fructose in conjunction with pterostilbene and a non-carbohydrate based dietary nutrient or nutrients simultaneously further increases the athletic performance-enhancing effects of pterostilbene and the non-carbohydrate dietary nutrient(s) by up to 50% and also increases the tolerability of pterostilbene in humans by up to 50%.

rats = details: doses 10 mg/kg up to 40 mg/kg bodyweight; cited from earlier work
[2] = ABAP-derived peroxyl radicals; cited from earlier work
[3] = tested on: streptozotocin-induced hyperglycemic rats; details: cited from earlier work
DPPH radical scavenging = details: converted value in brackets
[4] = inhibition of citronellal thermo-oxidation; details: converted value in brackets
MAO leukemia cell line = details: relative to cis-resveratrol; cited from earlier work
[5] = 5 mg oral (0.0486 mg/kg) added to creatine-containing liquid supplement vs supplement alone, one healthy person
[6] = pterostilbene plus non-carbohydrate nutrient(s) plus exogenous dietary carbohydrates, oral

| SMILES | drop of whole blood glucose level (healthy, adult humans; 30 mg oral single dose (about 0.248 mg/kg), one healthy person, within fifteen minutes) | oral dose above which profound hypoglycemia and its side effects are induced (healthy, adult humans; profound hypoglycemia e.g. whole blood glucose at or below 55 mg/dL, actual dose tested 20 mg) | reduction of thiobarbituric acid reactive substances (TBARS) production (normal human fibroblasts) [%] | total reactive antioxidant potential [1] [mg/mL] | effect on athletic performance (humans; 3 mg to 20 mg added to a creatine-containing supplement) | immediate increase in anaerobic work capacity (humans; [5]) [%] | immediate increase in maximal exertion power (humans; [5]) [%] | oral dose possible without the onset of hypoglycemia (humans; human, in vivo, po) | further increase of athletic performance-enhancing effects by added carbohydrates (humans; [6]) | increase of tolerability in humans by added carbohydrates (humans; [6]) | adverse effects (rats) | total reactive antioxidant potential [2] [mM] | lowering of blood glucose level [3] [%] | EC50, scavenging of DPPH radicals (DPPH radical scavenging) [mg/mL] | EQ value, inhibition of cintronellal thermo-oxidation [4] [mg/mL] | ability to induce apoptosis compared to cis-resveratrol (MAO leukemia cell line) |
| --- | --- | --- | --- | --- | --- | --- | --- | --- | --- | --- | --- | --- | --- | --- | --- | --- |
| COc1cc(/C=C/c2ccc(O)cc2)cc(OC)c1 [pterostilbene, trans-3,5-dimethoxy-4′-hydroxystilbene] | about 50 mg/dL | above 0.165 mg/kg | 61 | ~60.7 | improves athletic performance dramatically | ~12 | ~8 | up to 25 mg | up to 50% | up to 50% | no adverse effects noted | 237 ± 58 | 42 | ~7.68 | ~90.9 | – |
| Oc1ccc(/C=C/c2cc(O)cc(O)c2)cc1 [trans-reseveratrol] | – | – | – | – | – | – | – | – | – | – | – | – | – | – | – | ten times more potent |
